The results in this text go back to patent US11541129B2, “Nanoreservoir coated medical devices, biomaterials, and bioprosthetics” (Université de Liège, priority 2016, dated 2023).

The subject of the assay is platelets. Nature of the assay: ADP-induced platelet aggregation in PRP (light transmission aggregometry). Type of assay: cell-based. Conditions: Homo sapiens, 10 μM ADP, 37° C., read-out: IC50 concentration of free ticagrelor, ADP-induced platelet aggregation. How it is done:
(A) PRP was pre-incubated for 10 min with a solution of nanoreservoir containing increasing concentrations of ticagrelor or with free ticagrelor, as indicated. Platelet aggregation was induced by adding 10 μM ADP at 37° C. under stirring conditions (1200 rpm). Percentages of maximum aggregation recorded by light transmission aggregometry are shown. Data represent means±SD (*p<0.05, **p<0.01, ***p<0.001). (B) Maximum platelet aggregation obtained in the presence of different ratios of ticagrelor-loaded nanogels and minocycline-loaded nanogels. NG: nanogel bearing PEG 1500; NGT: ticagrelor-loaded nanogel bearing PEG 1500; NGM: minocycline-loaded nanogel bearing PEG 1500. Data represent means±SD.
Platelet-rich-plasma (PRP) was prepared by centrifugation of citrate anticoagulated human blood at 100×g for 15 min at room temperature. Platelet aggregation experiments were performed on PRP aliquots under stirring (1200 rpm) at 37° C. using light aggregometry (Chrono-Log Model 700 aggregometer, Kordia).
For this purpose, 1 ml of nanogel suspensions loaded with increasing concentrations of ticagrelor was centrifuged at 12000 g for 15 minutes, washed 2 times in PBS and resuspended in 300 μL of PBS. 260 μL of platelet-rich-plasma (PRP) was incubated with 10 μL of purified nanogel suspensions for 10 min. Platelet aggregation was then induced by adding 10 μM ADP at 37° C. under stirring conditions. […]

Converted amounts (≈) assume the structure as drawn.

On to `CCCSc1nc(N[C@@H]2C[C@H]2c2ccc(F)c(F)c2)c2nnn([C@@H]3C[C@H](OCCO)[C@@H](O)[C@H]3O)c2n1` [ticagrelor], for which the IC50 was determined as 1.8 µg/mL (≈ 3.44 µM).
